From patent publication US7425548B2, “Materials and methods for immune system stimulation” (Variety Chidren's Hospital, priority 2004, dated 2008)

Tests used:
parental HEK293 cells = test: TLR signaling, IL-8 ELISA; format: cell-based, human; settings: parental HEK, RR1 0-100 μg/ml, 24 hours
Protocol: (§1) TLR signaling. To determine the involvement of TLR signaling, parental HEK293 as well as HEK293 cells transfected with human TLR2, TLR6, TLR2/6 or TLR4/CD14/MD2 genes (cloned into pDUO plasmid), were used. These cells (0.5×10^6/ml) were incubated with 0-100 μg/ml of RR1 for 24 hours. Since these cells produce very low level of TNF-α and detectable levels of IL-8 upon activation, IL-8 secreted into the medium was analyzed using ELISA procedure. Incidentally, the IL-8 synthesis is also under the control of the transcription factor NF-κB.

[1] = tested on: HEK293 cells transfected with TLR2; test: TLR signaling, IL-8 ELISA; format: cell-based, human; settings: HEK/TLR2, 24 hours
Protocol: as §1

[2] = tested on: HEK293 cells transfected with TLR4/CD14/MD2; test: TLR signaling, IL-8 ELISA; format: cell-based, human; settings: HEK/TLR4/CD14/MD2, 24 hours
Protocol: as §1

RAW264.7 macrophages = test: Nonopsonized binding of FITC-zymosan A bioparticles; format: cell-based, mouse; settings: 1000 μg/ml RR1, 4° C.
Protocol: RR1 inhibits the binding and internalization of nonopsonic binding of zymosan A bioparticles in a dose-dependent manner. The cells were incubated with RR1 for 1 hour on ice (4° C.) in DMEM containing 0.5% FBS followed by zymosan A biparticles for 1 hour on ice. The cells were warmed for 7 minutes at 37° C. for internalization of zymosan A bioparticles and intracellular FITC fluorescence analyzed in a Coulter Elite flow cytometer.
Nonopsonized binding of RR1. To determine the inhibitory effect of RR1 on non-opsonized binding of zymosan A bioparticles, mouse monocyte/macrophage cells (0.5×10^6) were incubated with 0, 100, 500 and 1000 μg/ml of RR1 at 4° C. to prevent the local release of opsonins including complement (Ezekowitz, R. A. et al. J. Clin. Invest., 1985, 76:2368-2376; Brown, G. D. et al. J. Expt. Med., 2002, 196:407-412). After 1 hour incubation on ice, the cells were washed three times with pre-chilled culture medium, added FITC-conjugated zymosan A particles at a ratio of 25 particles/cell and kept on ice for another hour. The cells were washed with PBS twice and incubated in DMEM at 37° C. for 30 minutes in a CO2 incubator. The unbound zymosan particles were removed by extensive washing with medium and the intracellular fluorescence of the zymosan-FITC analyzed in a Coulter Elite flow cytometer.

normal lymphocytes [3] = test: Nitric oxide (NO) synthesis, Griess assay; format: cell-based, human; settings: RR1 0-100 μg/ml, 24 hours
Protocol: Normal lymphocytes from healthy volunteers were treated with RR1 (0-100 μg) at 37° C. for 24 in a CO2 incubator in MEM medium. The supernatant medium was analyzed for the production of NO using assay kit from Active Motif, Carlsbad, Calif. and data analyzed using ANOVA (p=0.109).
The NO quantification was assayed by Nitric Oxide quantification kit (ACTIVE MOTIF, Carlsbad, Calif.) as per the manufacturer's protocol. Briefly, lymphocytes (10^6/ml) were incubated with varying concentrations of RR1 (0-100 μg/ml) for 24 hours in a nitrate free medium (DULBECO Minimum Essential Medium) at 37° C. The cell culture supernatant (70 μl) was pipetted into the wells of a 96-well plate along with 20 μl reconstituted co-factor and 10 μl nitrate reductase enzyme solution. The plate was shaken at 150 rpm on a plate shaker for 30 minutes at room temperature. Griess reagents A and B (50 μl each) were added into each well, allowed the color to develop for 20 minutes and the absorbance was taken at 540 nm with a reference wavelength of 620 nm in the BIO-RAD plate reader.

normal lymphocytes [4] = test: Oxidative stress (GSH/GSSG levels); format: cell-based, human; settings: data not shown
[5] = tested on: HEK293 cells transfected with TLR2/6; test: TLR signaling, IL-8 ELISA; format: cell-based, human; settings: HEK/TLR2/6, RR1 0-100 μg/ml, 24 hours
Protocol: HEK293/TLR2/TLR6 cells (1×10^6) were treated with RR1 (0, 10, 50 and 100 μg/ml) at 37° C. for 24 hours and secreted IL-8 in the medium was analyzed by ELISA protocol.
as §1

[6] = target: T1, CR3 (CD11b) on RAW 264.7 macrophages (Mus musculus, UniProt P05555); test: Blocking of CR3 with CD11b mAb, glucan-induced TNF-α synthesis; format: cell-based; settings: anti-CD11b mAb 5 μg/ml, 37° C.
T1 construct: endogenous in cells; host or cells: RAW 264.7 mouse macrophages (ATCC)
Protocol: Effect Blocking of CR3 with CD11b mAb on opsonised binding. To examine whether the glucan specific receptors CR3 is involved in the opsonised recognition/binding of RR1 on macrophages, monoclonal antibodies (mAbs) specific for CR3 (Rat antimouse CD11b from BD BIOSCIENCES, San Jose, Calif.) were used for blocking the CR3. […] TNF-α released by the macrophages into the medium was analyzed by ELISA kit (BD Biosciences, San Jose, Calif.) (Brown, G. D. et al. J. Expt. Med., 2002, 196:407-412; Brown, G. D. et al. J. Exp. Med., 2003, 197:1119-1124).

normal lymphocytes [7] = test: Quantification of cytokine and chemokine synthesis by ELISA; format: cell-based, human; settings: at 100 pg/ml concentration

T1 sequence (P05555 17-1153): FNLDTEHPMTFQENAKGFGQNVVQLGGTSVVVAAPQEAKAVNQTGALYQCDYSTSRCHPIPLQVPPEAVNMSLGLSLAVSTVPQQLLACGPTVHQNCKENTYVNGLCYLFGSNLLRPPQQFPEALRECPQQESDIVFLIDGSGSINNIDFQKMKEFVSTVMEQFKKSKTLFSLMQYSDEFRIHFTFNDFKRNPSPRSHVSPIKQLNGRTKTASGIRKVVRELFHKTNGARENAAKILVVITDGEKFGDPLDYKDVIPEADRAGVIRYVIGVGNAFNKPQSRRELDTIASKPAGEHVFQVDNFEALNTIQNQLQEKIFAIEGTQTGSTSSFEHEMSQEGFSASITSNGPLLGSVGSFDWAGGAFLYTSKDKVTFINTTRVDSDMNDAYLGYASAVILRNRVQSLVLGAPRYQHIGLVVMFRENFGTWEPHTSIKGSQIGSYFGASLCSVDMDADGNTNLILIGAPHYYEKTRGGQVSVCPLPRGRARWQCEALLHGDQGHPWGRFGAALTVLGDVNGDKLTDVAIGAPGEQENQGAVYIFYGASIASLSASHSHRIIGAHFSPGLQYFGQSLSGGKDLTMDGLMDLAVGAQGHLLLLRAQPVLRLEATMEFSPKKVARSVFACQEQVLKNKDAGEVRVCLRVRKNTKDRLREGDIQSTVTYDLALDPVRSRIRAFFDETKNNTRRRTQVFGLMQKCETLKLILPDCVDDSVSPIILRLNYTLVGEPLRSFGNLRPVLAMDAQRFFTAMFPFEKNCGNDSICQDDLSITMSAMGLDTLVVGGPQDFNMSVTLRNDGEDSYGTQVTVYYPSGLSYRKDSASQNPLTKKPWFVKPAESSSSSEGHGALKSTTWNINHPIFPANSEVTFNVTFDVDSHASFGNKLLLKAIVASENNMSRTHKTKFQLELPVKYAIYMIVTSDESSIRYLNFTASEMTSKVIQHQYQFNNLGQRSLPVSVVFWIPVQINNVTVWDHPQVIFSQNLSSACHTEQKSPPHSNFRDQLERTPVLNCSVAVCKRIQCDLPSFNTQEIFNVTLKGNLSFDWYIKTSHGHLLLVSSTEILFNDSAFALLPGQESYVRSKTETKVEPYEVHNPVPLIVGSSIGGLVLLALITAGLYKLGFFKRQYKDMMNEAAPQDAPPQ
T1 sequence (P11835 24-771 partner): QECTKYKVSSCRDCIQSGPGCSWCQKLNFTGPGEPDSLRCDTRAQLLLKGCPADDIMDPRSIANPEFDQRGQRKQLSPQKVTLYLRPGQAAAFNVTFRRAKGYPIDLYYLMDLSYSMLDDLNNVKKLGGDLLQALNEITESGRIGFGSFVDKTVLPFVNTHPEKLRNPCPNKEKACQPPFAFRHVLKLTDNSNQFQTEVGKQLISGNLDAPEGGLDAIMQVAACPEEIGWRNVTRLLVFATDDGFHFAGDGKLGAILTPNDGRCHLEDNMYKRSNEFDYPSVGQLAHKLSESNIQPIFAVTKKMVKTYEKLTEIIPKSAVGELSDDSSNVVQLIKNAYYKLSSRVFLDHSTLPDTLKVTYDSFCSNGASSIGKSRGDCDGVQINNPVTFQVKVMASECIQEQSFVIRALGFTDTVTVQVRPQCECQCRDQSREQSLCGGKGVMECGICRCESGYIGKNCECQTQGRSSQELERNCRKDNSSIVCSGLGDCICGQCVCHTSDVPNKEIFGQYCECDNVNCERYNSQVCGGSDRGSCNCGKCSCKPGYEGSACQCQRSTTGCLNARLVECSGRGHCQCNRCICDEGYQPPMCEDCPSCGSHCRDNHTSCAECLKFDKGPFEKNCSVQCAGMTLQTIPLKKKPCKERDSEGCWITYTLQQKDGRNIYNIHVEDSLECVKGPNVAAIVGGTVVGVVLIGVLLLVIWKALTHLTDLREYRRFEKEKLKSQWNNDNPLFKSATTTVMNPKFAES

inhibition of nonopsonic binding of FITC-zymosan A bioparticles (fluorescence intensity) (RAW264.7 macrophages): about 65%
amount of hydrogen peroxide (normal lymphocytes [4]): No significant elevation
% reduction of secreted TNF-α ([6]; then glucan 100 μg/ml): 4.25 ± 3.66%
% reduction of secreted TNF-α ([6]; then glucan 500 μg/ml): 1.89 ± 0.50%
Substance: (1,4)-α-D-glucan [RR1]
IL-8 production (parental HEK293 cells): did not induce IL-8 production
IL-8 production [1]: did not induce IL-8 production
IL-8 production [2]: did not induce IL-8 production
increase in NO (normal lymphocytes [3]): ≤ 21%
IL-8 production [5]: copious induction of IL-8
synthesis of IL-1β (normal lymphocytes [7]): 1080 pg/mL
